Assay results: the supplement of paper PMC4862054

Experiments:
Conditions in all cases: 72 h
[1] = tested on: CAL-85-1
In short: (§1)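 Breast cancer cell lines in 20 µl suspension were added to 384-well plates already holding compound at 5 concentrations, spaced in 10-fold steps across a compound-specific 10,000-fold range, and incubated for 72 h. CellTox Green fluorescence (485/520 nm) was read first to measure cell death, followed by CellTiter-Glo luminescence for viability after 10 min at room temperature. Each plate was normalised to 0.1 % DMSO and a positive kill control. EC50 values came from dose-response curve fits and were censored at the top concentration.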

[2] = tested on: MCF-10A
In short: as §1

[3] = tested on: HDQ-P1
In short: as §1

[4] = tested on: BT-549
In short: as §1

[5] = tested on: CAL-148
In short: as §1

[6] = tested on: CAL-51
In short: as §1

[7] = tested on: DU-4475
In short: as §1

[8] = tested on: MDA-MB-453
In short: as §1

[9] = tested on: MFM-223
In short: as §1

[10] = tested on: Hs578T
In short: as §1

[11] = tested on: MDA-MB-468
In short: as §1

[12] = tested on: SK-BR-3
In short: as §1

[13] = tested on: HCC1937
In short: as §1

[14] = tested on: CAL-120
In short: as §1

[15] = tested on: BT-474
In short: as §1

[16] = tested on: MDA-MB-436
In short: as §1

[17] = tested on: HCC1143
In short: as §1

[18] = tested on: MDA-MB-231
In short: as §1

[19] = tested on: CAL-51; remark: listed apart in the source
Method: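 Drug sensitivity and resistance testing (DSRT) of breast cancer cell lines in 384-well plates, 5 concentrations in 10-fold dilutions over a compound-specific 10,000-fold range. After 72 h, cytotoxicity was read by CellTox Green fluorescence and viability by CellTiter-Glo luminescence (multiplexed), normalised to DMSO and benzethonium chloride controls. EC50 is the inflection point of the fitted dose-response curve (bottom asymptote free, so it can be relative for partial curves) and is censored at the highest tested concentration. Rows with DSS 0 (no meaningful response) were excluded.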

Row | Compound | EC50, CellTiter-Glo [1] | EC50, CellTiter-Glo [2] | EC50, CellTiter-Glo [3] | EC50, CellTiter-Glo [4] | EC50, CellTiter-Glo [5] | EC50, CellTiter-Glo [6] | EC50, CellTiter-Glo [7] | EC50, CellTiter-Glo [8] | EC50, CellTiter-Glo [9] | EC50, CellTiter-Glo [10] | EC50, CellTiter-Glo [11] | EC50, CellTiter-Glo [12] | EC50, CellTiter-Glo [13] | EC50, CellTiter-Glo [14] | EC50, CellTiter-Glo [15] | EC50, CellTiter-Glo [16] | EC50, CellTiter-Glo [17] | EC50, CellTiter-Glo [18] | EC50, CellTox Green [19]
1 | CO[C@H](C(=O)[C@@H](O)[C@@H](C)O)[C@@H]1Cc2cc3cc(O[C@H]4C[C@@H](O[C@@H]5C[C@@H](O)[C@H](O)[C@@H](C)O5)[C@H](O)[C@@H](C)O4)c(C)c(O)c3c(O)c2C(=O)[C@H]1O[C@H]1C[C@@H](O[C@@H]2C[C@@H](O)[C@@H](O[C@@H]3C[C@](C)(O)[C@H](O)[C@@H](C)O3)[C@@H](C)O2)[C@H](O)[C@@H](C)O1 [Plicamycin] | 4270 nM | 4120 nM | 5650 nM | 2340 nM | 4000 nM | 240 nM | 3220 nM | 5310 nM | 7030 nM | 4220 nM | 2510 nM | 4530 nM | 4190 nM | 6760 nM | 2440 nM | 6150 nM | 3910 nM | 3020 nM | 2120 nM
2 | N[C@@H](Cc1ccc(N(CCCl)CCCl)cc1)C(=O)O [Melphalan] | 444 nM | 424 nM | 297 nM | 758 nM | 268 nM | 182 nM | 322 nM | 213 nM | 310 nM | 518 nM | 203 nM | 247 nM | 235 nM | 1220 nM | 313 nM | 501 nM | 739 nM | 237 nM | 194 nM
3 | COc1cc(Nc2ncc(F)c(Nc3ccc4c(n3)N(COP(=O)(O)O)C(=O)C(C)(C)O4)n2)cc(OC)c1OC [Fostamatinib] | 1560 nM | 451 nM | 1660 nM | 599 nM | – | – | – | – | 222 nM | 938 nM | – | > 2500 nM | > 2500 nM | 405 nM | 1160 nM | – | 530 nM | 452 nM | –
4 | COc1cc2c(cc1-c1c(C)noc1C)ncc1[nH]c(=O)n([C@H](C)c3ccccn3)c12 [I-BET151] | 834 nM | 855 nM | 1340 nM | 673 nM | – | 1380 nM | 4080 nM | 2190 nM | 913 nM | 678 nM | 3110 nM | 1220 nM | 537 nM | 574 nM | 6720 nM | – | 1380 nM | 1310 nM | 1740 nM
5 | CC[C@H](CC#N)OC(=O)N[C@@H](C)c1cccc(NC(=O)Nc2ccc(-c3cnco3)c(OC)c2)c1 [AVN944] | 174 nM | 176 nM | 198 nM | 139 nM | 236 nM | 196 nM | 465 nM | – | 859 nM | 532 nM | 85 nM | 491 nM | 333 nM | 376 nM | 699 nM | 176 nM | 359 nM | 287 nM | 176 nM
6 | CCCc1cc(C)[nH]c(=O)c1CNC(=O)c1cc(-c2ccnc(N3CCN(C)CC3)c2)cc2c1cnn2C(C)C [GSK343] | 7160 nM | – | – | 3210 nM | 1860 nM | – | 2380 nM | 2690 nM | 7400 nM | – | 2980 nM | 2750 nM | – | – | 4570 nM | 5170 nM | – | 3820 nM | –
7 | CC(C)n1nc(-c2ccc3oc(N)nc3c2)c2c(N)ncnc21 [INK128] | 25.5 nM | 43 nM | 24 nM | 22.7 nM | 32.2 nM | 15.9 nM | 188 nM | 16.8 nM | 15.4 nM | 27.8 nM | 40.6 nM | 8.43 nM | 173 nM | 27.8 nM | 31.9 nM | 23.6 nM | 38.2 nM | 37.4 nM | –
8 | CC(C)NC[C@@H](C(=O)N1CCN(c2ncnc3c2[C@H](C)C[C@H]3O)CC1)c1ccc(Cl)cc1 [GDC-0068] | 6480 nM | 1150 nM | 271 nM | 600 nM | 177 nM | 2780 nM | 2070 nM | 783 nM | 139 nM | 1150 nM | 656 nM | 814 nM | 2350 nM | 819 nM | > 10000 nM | > 10000 nM | 1590 nM | – | 1150 nM
9 | Cc1c(N)nc([C@H](CC(N)=O)NC[C@H](N)C(N)=O)nc1C(=O)N[C@H](C(=O)N[C@H](C)[C@@H](O)[C@H](C)C(=O)N[C@H](C(=O)NCCc1nc(-c2nc(C(=O)NCCC[S+](C)C)cs2)cs1)[C@@H](C)O)[C@@H](OC1OC(CO)C(O)C(O)C1OC1OC(CO)C(O)C(OC(N)=O)C1O)c1cnc[nH]1 (stereo partly specified) [Bleomycin] | – | – | – | 2360 nM | 911 nM | 49.9 nM | – | – | – | – | – | 1830 nM | 8710 nM | – | – | 5920 nM | 9670 nM | – | 20.5 nM
10 | CC(C)C[C@H](NC(=O)[C@H](CCc1ccccc1)NC(=O)CN1CCOCC1)C(=O)N[C@@H](Cc1ccccc1)C(=O)N[C@@H](CC(C)C)C(=O)[C@@]1(C)CO1 [Carfilzomib] | 8.12 nM | 90.6 nM | 19.1 nM | 3.63 nM | 33.1 nM | 13.1 nM | 42.8 nM | 7.36 nM | 3.9 nM | 12.4 nM | 3.42 nM | 5.41 nM | 17.2 nM | 25.3 nM | 13.8 nM | 6.13 nM | 8.56 nM | 16.9 nM | 5.31 nM
11 | Nc1nc(Cl)nc2c1ncn2[C@@H]1O[C@H](CO)[C@@H](O)[C@@H]1F [Clofarabine] | 398 nM | 675 nM | 482 nM | 211 nM | 601 nM | 261 nM | 872 nM | – | – | 3150 nM | 627 nM | 201 nM | – | 305 nM | 196 nM | 219 nM | 320 nM | 524 nM | 108 nM
12 | COc1cc2c(Oc3ccc(NC(=O)C4(C(=O)Nc5ccc(F)cc5)CC4)cc3F)ccnc2cc1OCCCN1CCOCC1 [Foretinib] | – | 854 nM | – | – | 610 nM | 490 nM | – | – | 111 nM | – | 772 nM | – | – | 179 nM | 145 nM | > 1000 nM | 317 nM | 600 nM | 251 nM
13 | CC[C@@H]1C(=O)N(C)c2cnc(Nc3ccc(C(=O)N[C@H]4CC[C@H](N5CCN(CC6CC6)CC5)CC4)cc3OC)nc2N1C(C)C [Volasertib] | 8.51 nM | 33.2 nM | 53.1 nM | 20.4 nM | 8.07 nM | 16.9 nM | 25.4 nM | 0.7 nM | 4.62 nM | 76.9 nM | 6.98 nM | 8.82 nM | 82.3 nM | 46.6 nM | 7.02 nM | 3.59 nM | 22.5 nM | 9.75 nM | 20.7 nM
14 | CCc1cnn2c(NCc3ccc[n+]([O-])c3)cc(N3CCCC[C@H]3CCO)nc12 [Dinaciclib] | 5.42 nM | 45.8 nM | 12.3 nM | 13.9 nM | 26.9 nM | 12.8 nM | 20.6 nM | 26.1 nM | 21.2 nM | 16 nM | 23.7 nM | 6.99 nM | 21.9 nM | 17.9 nM | 12.9 nM | 9 nM | 12 nM | 5.9 nM | 13 nM
15 | CO[C@H]1C[C@@H]2CC[C@@H](C)[C@@](O)(O2)C(=O)C(=O)N2CCCC[C@H]2C(=O)O[C@H]([C@H](C)C[C@@H]2CC[C@@H](O)[C@H](OC)C2)CC(=O)[C@H](C)/C=C(\C)[C@@H](O)[C@@H](OC)C(=O)[C@H](C)C[C@H](C)/C=C/C=C/C=C/1C [Sirolimus] | 0.95 nM | – | 7.92 nM | 1.85 nM | 3.6 nM | 2.33 nM | 16.1 nM | 4.84 nM | 3.87 nM | 1.24 nM | 0.65 nM | 4.12 nM | 6.4 nM | 3.4 nM | 3.4 nM | 2.96 nM | 3.09 nM | – | –
16 | CN1CCc2c(c3ccccc3n2Cc2ccc(C(=O)NO)cc2)C1 [Tubastatin A] | 6160 nM | – | – | 7980 nM | – | 297 nM | – | – | – | – | – | 8820 nM | 1600 nM | – | – | – | 2350 nM | – | 2220 nM
17 | CCN(CC)CCOc1ccc(C(=C(Cl)c2ccccc2)c2ccccc2)cc1 [Clomifene] | 2390 nM | 9400 nM | – | 1980 nM | – | – | 3460 nM | 2910 nM | 6660 nM | 2760 nM | – | 6000 nM | 2900 nM | – | 3940 nM | – | – | 3540 nM | –
18 | CN1CCN(c2nc(C3=C(c4c[nH]c5ccccc45)C(=O)NC3=O)c3ccccc3n2)CC1 [Sotrastaurin] | – | – | > 10000 nM | – | – | – | 6790 nM | – | – | – | – | 1460 nM | – | – | – | – | – | – | –
